For the assay, the system named is Male Fischer 344 rats. The assay is described as follows: Penile Erection in Rat. The assay is classed as in vivo. The note with it: male Fischer 344 rats (n=7), observed for 60 minutes, mean number. As to the method:
(This test was carried out according to a similar manner to that described in Jpn. J. Pharmacol., Vol. 64, 147-153 (1994))
Male Fischer 344 rats at the age of 8 weeks (n=7) were used. All rats were handled 3 minutes a day for three successive days before the tests. The rats were tested in groups of seven and various doses of the test compound were given in semi-randomized order. The test compounds were suspended in 0.5% methyl-cellulose immediately before use, and given intraperitoneally in a volume of 1 ml/kg just before the start of test. […] A mirror was situated behind each box […]. Data was expressed as a mean number.

As for `O=C(NC1CCN(C(=O)C2CC2)CC1)c1ccc(F)cc1` [Example 19, N-(1-cyclopropylcarbonylpiperidin-4-yl)-4-fluorobenzamide], the “Penile Erection” value (dose 0.32 mg/kg intraperitoneally) came to 0.75 number/hr.
For `CC(=O)N1CCN(C(=O)Nc2ccc(F)cc2)CC1` [Example 2, 1-acetyl-4-(4-fluorophenylcarbamoyl)piperazine], the “Penile Erection” value (dose 1 mg/kg intraperitoneally) was found to be 1.14 number/hr.

These data come from US6710043B1, “Amide compounds” (Fujisawa Pharmaceutical Co., Ltd., priority 1999, dated 2004).
